In US20170368082A1, “FORMULATIONS OF BRINCIDOFOVIR” (priority 2016, published 2017):
“Also recorded” adds a separate entry of the source. Where two headings read alike, the source gives them in different places.

What was measured:
human whole blood = test: Hemolytic potential, cyanmethemoglobin method, human whole blood; type: cell-based; details: for Mean HgB Concentration: interference control, Phase 2
Protocol: Each concentration of test item for the rat was mixed separately in a 1:4 ratio with rat whole blood while each concentration of test item for the human was mixed separately in a 1:4 ratio with human whole blood. These samples plus control samples [vehicle control (vehicle+whole blood, 1 for rat and 1 for humans), positive control (1% Saponin+whole blood), untreated whole blood control and negative control (saline+whole blood) were analyzed for hemolysis (supernatant hemoglobin concentration).
(§1) The rat and human whole blood samples were incubated in test or control items at 37±1° C. for 20 minutes and then immediately (within 2 minutes) centrifuged at 3500±100 rpm (2740 g) at room temperature for 5-10 minutes. The supernatant was extracted and subjected to a hemoglobin analysis using the cyanmethemoglobin method employed on the Siemens Advia 120 hematology analyzer. If the test item has a potential for causing hemolysis, then hemoglobin released from lysed red blood cells into the plasma supernatant can be quantified via the reaction of heme iron in solution being oxidized from a ferrous to a ferric state in the presence of potassium cyanide. The reaction results in the formation of methemoglobin, which then combines with cyanide to form a stable cyanmethemoglobin. When measured spectrophotometrically at 546 nm the absorbance of cyanmethemoglobin follows Beer's Law and is directly proportional to the concentration of hemoglobin released into solution.
as §1, with “Without wishing to be bound by theory, if” for “If”

[1] = Drug product vial and stopper compatibility; type: physicochemical
Protocol: Formulations of the disclosure were evaluated for […]. The testing formulation (5 mL, 10 mg/mL brincidofovir, 200 mM sodium phosphate, pH=8.0) was dispensed into a set of Afton sterilized, Ready-To-Fill® vials. The vials were stoppered with West NovaPure® stoppers and crimped with Afton Ready-To-Fill® sterilized seals, and stored for 6 hours at ambient conditions in upright and inverted orientations. Samples of the filling solution were collected before filling and after 6 hours of storage under the respective condition. The collected samples were assessed for their appearance, pH, and c(BCV). […] No additional impurity was introduced following contact.
The vials used for testing were clear, 20 mL, Class A borosilicate glass serum vials, and the stoppers were 20 mm Novapure® stoppers, with FluroTec® coating.

[2] = Maximum tolerated dose study, single 2-hour IV infusion (Phase 1); type: in vivo, Sprague-Dawley CD rats
Protocol: For Phase 1, Sprague-Dawley CD® rats (2/sex/dosing interval) were dosed with brincidofovir via 2-hour IV infusion once at 2, 4, 10 or 15 mg/kg. The maximum feasible dose (MFD) was limited to 15 mg/kg because of increased hemolytic potential when the concentration of brincidofovir exceeds 1 mg/mL in the dosing solution. The dose volume was 10 mL/kg/hr for all dosing intervals. Each dose administration was followed by a 2-3 day observation period. At the end of the Phase 1 treatment period, all animals were euthanized and discarded without macroscopic examination.
For Phase 1 (MTD), up to four dose levels of brincidofovir were administered as escalating single doses in naïve male and female rats via intravenous infusion (2-hour). Each dose administration was followed by a 2-3 day observation period. Each subsequent dose level was increased and administered to naïve animals based on the response to the preceding doses until the maximum tolerated dose (MTD) was identified, or until the maximum feasible dose (MFD) based on prior evidence of hemolysis of 15 mg/kg was achieved.
During Phase 1, each animal received a single dose administered via intravenous infusion (2-hours), followed by a 2-3 day observation period after each dose interval. Following the single intravenous (2-hour) infusion, the animals had their jackets and dosing sets removed and were not returned to saline maintenance.
For dose observations, Phase 1: Signs of poor health or toxic or pharmacologic effects (e.g., abnormalities in general condition, appearance, activity, behavior, respiration, etc.) observed during infusion period were recorded.

[3] = IV BCV single ascending dose study: plasma BCV and CDV PK; type: in vivo, human; details: for Tmax / clearance / half-life / AUC(0-inf) / Cmax / Vd: human; for Tmax: intravenous; for clearance / half-life / AUC(0-inf) / Cmax / Vd: plasma; for Vd: read-out: Vss
Protocol: Plasma PK samples were collected over 7 days and assayed by HPLC-MS. Plasma BCV PK parameters were determined by non-compartmental analysis and dose proportionality was assessed. Safety assessments were collected over 14 days.

[4] = iv, 10 mg, plasma BCV, Cohort 1, BCV 10 mg 2 h IV infusion, n = 6
[5] = iv, 25 mg, plasma BCV, Cohort 2, BCV 25 mg 2 h IV infusion, n = 6
[6] = iv, 50 mg, plasma BCV, Cohort 3, BCV 50 mg 2 h IV infusion, n = 9
[7] = iv, 50 mg, plasma BCV, Cohort 4, BCV 50 mg 4 h IV infusion, n = 9

Question: For CCCCCCCCCCCCCCCCOCCCOP(=O)(O)CO[C@H](CO)Cn1ccc(N)nc1=O [Brincidofovir], which “Hemocompatibility / hemolytic potential” value (human whole blood; 0.2, 0.5 and 1.6 mg/mL) is on record?
Answer: The value was “no hemolytic potential in human whole blood; also recorded: no effect from brincidofovir on hemocompatibility”.

Question: And the “Mean HgB Concentration” value (human whole blood; Tube 2A: Test Item (0.2 mg/mL) + saline)?
Answer: The value was 0.0 g/dL.

Question: And the “Mean HgB Concentration” value (human whole blood; Tube 2B: Test Item (0.5 mg/mL) + saline)?
Answer: Its value is 0.0 g/dL.

Question: And the “Mean HgB Concentration” value (human whole blood; Tube 2C: Test Item (1.6 mg/mL) + saline)?
Answer: Its value is 0.0 g/dL.

Question: What about the Appearance ([1]; Inverted, 6 h) of the same compound?
Answer: Its Appearance is “Clear, colorless”.

Question: And the “Measured pH” value ([1]; Inverted, 6 h)?
Answer: Its value is 8.0.

Question: And the “Observed c(BCV)” value ([1]; Inverted, 6 h)?
Answer: The value was 9.4 mg/mL.

Question: And the Appearance ([1]; Pre filling)?
Answer: Its Appearance is “Clear, colorless”.

Question: And the “Measured pH” value ([1]; Pre filling)?
Answer: Its value is 8.0.

Question: What about the “Observed c(BCV)” value ([1]; Pre filling) of the same compound?
Answer: Its value is 9.5 mg/mL.

Question: And the Appearance ([1]; Upright, 6 h)?
Answer: The Appearance was “Clear, colorless”.

Question: And the “Measured pH” value ([1]; Upright, 6 h)?
Answer: Its value is 8.0.

Question: And the “Observed c(BCV)” value ([1]; Upright, 6 h)?
Answer: Its value is 9.5 mg/mL.

Question: What about the Survival ([2]; 2, 4, 10 or 15 mg/kg) of the same compound?
Answer: Its Survival is “survived until their scheduled euthanasia”.

Question: What about the Tolerability ([2]; 2, 4, 10 or 15 mg/kg single 2-hour IV infusion) of the same compound?
Answer: Its Tolerability is “all doses were well tolerated”.

Question: What about the Clinical signs ([2]; Dose 1 (2 mg/kg), both males) of the same compound?
Answer: Its Clinical signs is “rapid breath and hunched posture, with and without piloerection, partially closed eyes, and decreased activity”.

Question: And the Clinical signs ([2]; Dose 2 (4 mg/kg), both males and one female)?
Answer: The Clinical signs was “irregular breathing”.

Question: What about the Clinical signs ([2]; Dose 3 (10 mg/kg)) of the same compound?
Answer: The Clinical signs was “No clinical signs were observed”.

Question: What about the Clinical signs ([2]; Dose 4 (15 mg/kg), both males and one female) of the same compound?
Answer: Its Clinical signs is “decreased activity with or without irregular breathing, piloerection, and bilateral partially closed eyes”.

Question: What about the “Maximum feasible dose (MFD)” value ([2]; single 2-hour IV infusion) of the same compound?
Answer: Its value is 15 mg/kg.

Question: What about the “Geometric mean plasma BCV AUC∞ relative to oral 100 mg tablets” value ([3]; BCV IV 50 mg) of the same compound?
Answer: The value was 4.5 fold.

Question: And the “Plasma BCV Cmax and AUCs vs dose” value ([3]; IV single ascending dose)?
Answer: Its value is “increased in proportion to dose”.

Question: What about the Tmax ([3]; 50 mg, plasma BCV, 4-hour infusion (Cohort 4)) of the same compound?
Answer: Its Tmax is 2.5 to 4 h.

Question: What about the Tmax ([3]; plasma BCV, Cohorts 1-3 (2-hour infusion)) of the same compound?
Answer: The Tmax was 2 h.

Question: And the clearance [3, 4]?
Answer: The clearance was 127 mL/min.

Question: And the half-life [3, 4]?
Answer: Its half-life is 3.42 h.

Question: And the AUC(0-inf) ([3]; iv, 10 mg, plasma BCV, Cohort 1, BCV 10 mg 2 h IV infusion, n = 6, geometric mean, read-out: AUC∞)?
Answer: The AUC(0-inf) was 1310 ng·h/mL.

Question: What about the Cmax ([3]; iv, 10 mg, plasma BCV, Cohort 1, BCV 10 mg 2 h IV infusion, n = 6, geometric mean, read-out: Cmax) of the same compound?
Answer: Its Cmax is 613 ng/mL.

Question: And the Vd [3, 4]?
Answer: The Vd was 16.4 L.

Question: What about the clearance [3, 5] of the same compound?
Answer: The clearance was 144 mL/min.

Question: What about the half-life [3, 5] of the same compound?
Answer: The half-life was 5.89 h.

Question: What about the AUC(0-inf) ([3]; iv, 25 mg, plasma BCV, Cohort 2, BCV 25 mg 2 h IV infusion, n = 6, geometric mean, read-out: AUC∞) of the same compound?
Answer: The AUC(0-inf) was 2890 ng·h/mL.

Question: And the Cmax ([3]; iv, 25 mg, plasma BCV, Cohort 2, BCV 25 mg 2 h IV infusion, n = 6, geometric mean, read-out: Cmax)?
Answer: The Cmax was 1410 ng/mL.

Question: And the Vd [3, 5]?
Answer: Its Vd is 19.8 L.

Question: What about the clearance [3, 6] of the same compound?
Answer: Its clearance is 140 mL/min.

Question: What about the half-life [3, 6] of the same compound?
Answer: Its half-life is 6.54 h.

Question: And the AUC(0-inf) ([3]; iv, 50 mg, plasma BCV, Cohort 3, BCV 50 mg 2 h IV infusion, n = 9, geometric mean, read-out: AUC∞)?
Answer: The AUC(0-inf) was 5950 ng·h/mL.

Question: What about the Cmax ([3]; iv, 50 mg, plasma BCV, Cohort 3, BCV 50 mg 2 h IV infusion, n = 9, geometric mean, read-out: Cmax) of the same compound?
Answer: The Cmax was 2950 ng/mL.

Question: And the Vd [3, 6]?
Answer: Its Vd is 19.5 L.

Question: What about the clearance [3, 7] of the same compound?
Answer: Its clearance is 127 mL/min.

Question: And the half-life [3, 7]?
Answer: The half-life was 5.1 h.

Question: And the AUC(0-inf) ([3]; iv, 50 mg, plasma BCV, Cohort 4, BCV 50 mg 4 h IV infusion, n = 9, geometric mean, read-out: AUC∞)?
Answer: Its AUC(0-inf) is 6570 ng·h/mL.

Question: What about the Cmax ([3]; iv, 50 mg, plasma BCV, Cohort 4, BCV 50 mg 4 h IV infusion, n = 9, geometric mean, read-out: Cmax) of the same compound?
Answer: The Cmax was 1590 ng/mL.

Question: And the Vd [3, 7]?
Answer: The Vd was 10.8 L.

Question: And the AUC(0-inf) ([3]; po, 100 mg, BCV oral 100 mg tablets, read-out: Plasma BCV AUC∞)?
Answer: The AUC(0-inf) was 1390 ng·h/mL.

Question: What about the Cmax ([3]; po, 100 mg, BCV oral 100 mg tablets, read-out: Plasma BCV Cmax) of the same compound?
Answer: The Cmax was 251 ng/mL.
